{
  "source": "paper PMC7579232",
  "about": "(Current Clinical Pharmacology, 2020)",
  "origin": "cited, not measured here",
  "key": {"[1]": {"details": "rats"}, "[2]": {"details": "rabbits"}},
  "data": [
    {"smiles": "NC(=O)N1c2ccccc2C=Cc2ccccc21", "note": "[carbamazepine]", "values": [
      {"measurement": "Effect of pomegranate juice on elimination half-life", "setting": "[1]", "value": "does not affect"},
      {"measurement": "Increase of AUC by pomegranate juice", "setting": "[1]; oral carbamazepine with pomegranate juice", "value": "approximately 1.5 fold"}
    ]},
    {"smiles": "CCOC(=O)C1=C(C)NC(C)=C(C(=O)OC)C1c1cccc([N+](=O)[O-])c1", "note": "(stereo not drawn) [nitrendipine]", "values": [
      {"measurement": "Increase of area under the concentration-time curve by pomegranate juice", "setting": "[2]", "value": 2.03, "unit": "fold"},
      {"measurement": "Increase of peak plasma concentration by pomegranate juice", "setting": "[2]", "value": 2, "unit": "fold"}
    ]},
    {"smiles": "C=CC[C@@H]1/C=C(\\C)C[C@H](C)C[C@H](OC)[C@H]2O[C@@](O)(C(=O)C(=O)N3CCCC[C@H]3C(=O)O[C@H](/C(C)=C/[C@@H]3CC[C@@H](O)[C@H](OC)C3)[C@H](C)[C@@H](O)CC1=O)[C@H](C)C[C@@H]2OC", "note": "[tacrolimus]", "values": [
      {"measurement": "Effect of co-administered pomegranate dietary products on drug concentration", "setting": "a heart transplant patient", "value": "increased"}
    ]},
    {"smiles": "Cc1ncc2n1-c1ccc(Cl)cc1C(c1ccccc1F)=NC2", "note": "[midazolam]", "values": [
      {"measurement": "Effect of pomegranate juice on Cmax and AUC", "setting": "oral midazolam, healthy volunteers", "value": "did not affect"}
    ]}
  ]
}
